The values that follow come from article PMC2758050 (Bioorganic & medicinal chemistry letters, 2009).

One assay concerns hMC1R. To be noted: cited from earlier work; for EC50: read-out: EC50 hMC1R, agonist.
The target of a further assay is mMC1R (Mus musculus, UniProt Q01727). Description: Agonist activity of N-capped tripeptides on mouse MC1 receptor.
The subject of another assay is hMC4R. To be noted: ref 3b; cited from earlier work.
A further assay has as its system hMC3R. To be noted: ref 3b; cited from earlier work.
A further assay concerns the target mMC4R (Mus musculus, UniProt P56450). The assay can be described thus: Agonist activity of N-capped tripeptides on mouse MC4 receptor.
In assay [1] the test system is DNA damage resulting from exposure to solar UV radiation. Conditions: compared with α-MSH; ref 4a; cited from earlier work.
Another assay has as its target mMC5R (Mus musculus, UniProt P41149). Description: Agonist activity of N-capped tripeptides on mouse MC5 receptor.

What is called EC50 is the concentration at which the effect is half-maximal.

Where two headings read alike, the source gives them in different places.

Sequence of mMC1R (Q01727 whole entry): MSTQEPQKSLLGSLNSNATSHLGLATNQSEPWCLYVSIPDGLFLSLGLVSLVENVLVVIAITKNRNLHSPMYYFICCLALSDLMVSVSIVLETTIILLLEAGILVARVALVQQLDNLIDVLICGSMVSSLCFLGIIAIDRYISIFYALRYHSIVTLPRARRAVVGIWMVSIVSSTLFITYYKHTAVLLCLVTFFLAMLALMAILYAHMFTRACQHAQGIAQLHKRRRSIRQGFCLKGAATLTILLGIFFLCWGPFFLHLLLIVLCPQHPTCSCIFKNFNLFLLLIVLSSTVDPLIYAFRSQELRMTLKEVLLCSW
Sequence of mMC4R (P56450 whole entry): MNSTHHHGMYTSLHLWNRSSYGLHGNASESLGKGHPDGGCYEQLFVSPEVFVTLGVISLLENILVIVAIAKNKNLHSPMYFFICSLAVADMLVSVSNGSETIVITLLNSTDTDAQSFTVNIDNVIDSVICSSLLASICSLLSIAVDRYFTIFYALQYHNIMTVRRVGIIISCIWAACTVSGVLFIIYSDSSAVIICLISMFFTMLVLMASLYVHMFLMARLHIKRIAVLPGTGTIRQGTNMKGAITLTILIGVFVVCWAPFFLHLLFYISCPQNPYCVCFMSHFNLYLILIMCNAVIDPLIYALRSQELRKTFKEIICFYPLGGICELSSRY
Sequence of mMC5R (P41149 whole entry): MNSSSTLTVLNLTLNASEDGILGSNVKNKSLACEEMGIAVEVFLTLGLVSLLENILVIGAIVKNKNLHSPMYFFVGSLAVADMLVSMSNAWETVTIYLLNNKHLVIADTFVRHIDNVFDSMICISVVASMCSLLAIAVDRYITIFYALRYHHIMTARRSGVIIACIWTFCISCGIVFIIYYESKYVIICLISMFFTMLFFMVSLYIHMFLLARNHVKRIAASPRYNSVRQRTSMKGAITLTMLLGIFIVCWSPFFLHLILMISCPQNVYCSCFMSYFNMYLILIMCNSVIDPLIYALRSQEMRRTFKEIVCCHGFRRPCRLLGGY

Take `N=C(N)NCCC[C@H](NC(=O)[C@@H](Cc1ccccc1)NC(=O)[C@H](Cc1c[nH]cn1)NC(=O)CCCc1ccccc1)C(N)=O` [Compound 2, Ph(CH2)3CO-His-D-Phe-Arg-NH2]: in the assay on hMC1R (ref 3b), the EC50 is 5000 pM and the “type of agonism at hMC1R” value is “full hMC1 agonist”. Besides, the “loss in potency compared to 1 at mMC1R” value on mMC1R (vs tetrapeptide 1) stood at 590 fold. Moreover, the “type of agonism at hMC4R” value with hMC4R is “weak partial agonism”. Moreover, the “type of agonism at hMC3R” value in the assay with hMC3R is “weak partial agonism”.

In the case of `N=C(N)NCCC[C@H](NC(=O)[C@@H](Cc1ccccc1)NC(=O)[C@H](Cc1c[nH]cn1)NC(=O)CCCc1ccccc1)C(=O)N[C@@H](Cc1c[nH]c2ccccc12)C(N)=O` [Compound 1, Ph(CH2)3CO-His-D-Phe-Arg-Trp-NH2], the EC50 was 10 pM in the assay on hMC1R (ref 3a), 540 ± 190 pM on mMC4R, 1600 ± 290 pM at mMC1R and 330 ± 140 pM on mMC5R. In assay [1], the “potency in repairing DNA damage resulting from solar UV radiation” value is on record as “more potent than α-MSH”.
